Assay results from US20210348125A1, “INDUCED STEM MEMORY T CELLS AND METHODS OF USE THEREOF” (Augusta University Research Institute, Inc., priority 2017, published 2021).

Columns and labels:
pMel-1 CD8^+ T-cells [1] = test: In vitro activation of pMel-1 CD8+ T-cells with gp100 peptide with or without MEKi; format: cell-based, mouse
Description: Mice and cell culture. 4-6-week-old C57BL/6 mice (wild-type (WT) and pMel-1) from Jackson Laboratory or in-house bred pMel-1 mice with transgenic CD8^+ T-cells having TCR from melanoma-specific gp10025-33 peptide were used as outlined in various experiments. Animals had free access to water and food. All experiments were performed under protocols approved by the Augusta University Georgia Cancer Center Institutional Animal Care and Use Committee (IACUC). Cancer cell lines used in the present study included TC1 (kindly provided by Dr. T-C Wu at Johns Hopkins University) and B16-melanoma (obtained from American Type Culture Collection (ATCC)). […] Primary murine CD8^+ cells were isolated by fluorescence-activated cell sorting (FACS) and in some cases by negative selection using magnetic beads (Miltenyi Biotec) and cultured in RPMI 1640 medium supplemented with 10% FBS, 2 mM glutamine, 10 mM HEPES and 55 μM β-mercaptoethanol. […]
Flow cytometry analyses. […] TMRM (Tetramethylrhodamine, methyl ester) is a cell-permeant, cationic, red-orange fluorescent dye that is readily sequestered by active mitochondria and has been used for estimation of mitochondrial potential was used as described before (Sukumar, M., et al., Cell Metabolism, 23: 63-76 (2016)). […]
Metabolic assays. […] OCR and ECAR were measured with an XFp flux analyzer (Seahorse Bioscience). […]

[2] = tested on: Abl1, AKT3, c-RAF, CamK1, CDK2, c-Met; conditions: cited from earlier work
pMel-1 CD8^+ T-cells [3] = test: Antigen re-challenge (recall response) of activated CD8+ T-cells; format: cell-based, mouse; conditions: re-challenge with gp100 peptide 72 hrs; vs untreated
Excerpt: FIGS. 4A-4C show FACS analysis of memory phenotype of activated cells (gp100 vs gp100 +MEKi) after antigen (Ag) re-challenge with gp100 peptide for 72 hrs. […]. FIGS. 4M-4O show the scheme of ACT of B16 tumor-bearing mice with respectively activated CD8^+ T-cells as indicated FIG. 4M, estimation of tumor volume FIG. 4N and percent survival FIG. 4O in treated groups. FIGS. 4P-4R show the estimation of numbers of adoptively transferred cells in spleens of treated mice 30 days after ACT as indicated. For the untreated (UT) and control (CTX) groups where the endpoint for euthanasia was reached earlier, the mice were sacrificed and spleens harvested and stored as single-cell suspensions at −80° C. At the end of the study, all samples were stained and processed together for FACS analysis. Representative of two experiments is shown. *P<0.05, **P<0.01, ***P<0.001.
Cell activation, drug treatment and adoptive transfer. FACS-sorted CD8^+ cells from pMel-1 mice were activated with gp100 peptide ([…] (SEQ ID NO:2); 1 μM/10^6 cells/mL) either alone or in combination with MEKi (500-1000 nM) in T-cell medium supplemented with 30 units of IL2 for 48 hours unless otherwise stated. In some experiments, at 48 h cells were washed and re-incubated in IL2-containing medium supplemented with gp100 and/or anti-OX40-Ab for 72 hours. […]

MEK1 = MEK1 (Homo sapiens, UniProt Q02750); conditions: cited from earlier work
Chain of MEK1 (Q02750 whole entry, species assumed): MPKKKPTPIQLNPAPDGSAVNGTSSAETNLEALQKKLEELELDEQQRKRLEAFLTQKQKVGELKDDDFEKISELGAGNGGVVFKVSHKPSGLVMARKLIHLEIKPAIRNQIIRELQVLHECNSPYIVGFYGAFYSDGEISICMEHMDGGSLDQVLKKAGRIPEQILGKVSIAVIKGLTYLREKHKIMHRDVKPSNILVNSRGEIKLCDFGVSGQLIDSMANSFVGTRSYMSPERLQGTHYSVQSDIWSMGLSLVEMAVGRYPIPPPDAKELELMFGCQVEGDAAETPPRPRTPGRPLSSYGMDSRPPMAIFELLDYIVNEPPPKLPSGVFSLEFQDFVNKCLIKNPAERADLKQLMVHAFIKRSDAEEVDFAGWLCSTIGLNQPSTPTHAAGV

ERK1 or ERK2 = conditions: cited from earlier work
AB1-HA tumor model = conditions: CTX treatment at Day 9; cited from earlier work

Structure (SMILES): CCOC(=O)[C@@]1(CCCCCCOc2ccc(Cl)cc2)CO1 [etomoxir]
- cell proliferation of MEKi-treated pMel-1 CD8+ T-cells in the presence of etomoxir (pMel-1 CD8^+ T-cells [1]): significant decrease in cell proliferation

Structure (SMILES): Cn1c(=O)c(F)c(Nc2ccc(I)cc2F)c2c(=O)n(C[C@@H](O)CO)cnc21 [TAK-733]
- activity on Abl1, AKT3, c-RAF, CamK1, CDK2, c-Met, etc. [2]: inactive

Structure (SMILES): Cn1cnc2c(F)c(Nc3ccc(Br)cc3Cl)c(C(=O)NOCCO)cc21 [Selumetinib]
- recall response, expansion of terminal effector cells (CD62L-CD44+) (pMel-1 CD8^+ T-cells [3]): more than 2.5 fold

Structure (SMILES): CC[C@H]1/C=C/C=C/C[C@@H](C)[C@H](O)[C@@](C)(O)C(=O)[C@@H](C)[C@H](O)[C@@H](C)C(=O)[C@@H](C)[C@H](O)[C@@H](C)/C=C/C(=O)O[C@@H]2[C@H](C)[C@H](CC1)O[C@]1(CC[C@H](C)[C@H](C[C@@H](C)O)O1)[C@H]2C [oligomycin]
- proliferation of MEKi-treated CD8+ T-cells with oligomycin (pMel-1 CD8^+ T-cells [1]; gp100 activated, MEKi-treated cells): inhibition of proliferation

Structure (SMILES): COc1cccc(-c2cc(=O)c3ccccc3o2)c1N [PD98059]
- MEK-1-mediated activation of MAPK (MEK1): specifically inhibits
- direct inhibition of ERK1 or ERK2 (ERK1 or ERK2): does not directly inhibit

Structure (SMILES): O=P1(N(CCCl)CCCl)NCCCO1 (stereo not shown) [CTX, Cyclophosphamide]
- cure rate (AB1-HA tumor model): 75%
